Experimental data: patent US10988477B2 (Merck Patent GmbH, priority 2018, dated 2021)

How the values were obtained:
[1] = molecular target: intracellular GCN2 (phosphorylation of the GCN2 substrate eIF2α) (Homo sapiens, UniProt Q9P2K8); test: GCN2 cellular inhibition assay (AlphaScreen SureFire P-eIF2α Ser51, borrelidin-treated U2OS cells); type: cell-based; details: compounds of Formula II; biomarker assay, phosphorylated eIF2α Ser51 in borrelidin-treated U2OS cells
How it was run: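 Compound effect on GCN2 is gauged by eIF2α Ser51 phosphorylation in borrelidin-challenged U2OS cells (10 μM, 1 h). Top compound level is 40 μM final.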

GCN2 kinase = GCN2 kinase (Homo sapiens, UniProt Q9P2K8); test: GCN2 enzyme inhibition assay (Transcreener ADP2 fluorescence polarization); type: biochemical; details: compounds of Formula II; 280 μM ATP, 4 nM GCN2 kinase
Chain of GCN2 kinase (Q9P2K8 whole entry): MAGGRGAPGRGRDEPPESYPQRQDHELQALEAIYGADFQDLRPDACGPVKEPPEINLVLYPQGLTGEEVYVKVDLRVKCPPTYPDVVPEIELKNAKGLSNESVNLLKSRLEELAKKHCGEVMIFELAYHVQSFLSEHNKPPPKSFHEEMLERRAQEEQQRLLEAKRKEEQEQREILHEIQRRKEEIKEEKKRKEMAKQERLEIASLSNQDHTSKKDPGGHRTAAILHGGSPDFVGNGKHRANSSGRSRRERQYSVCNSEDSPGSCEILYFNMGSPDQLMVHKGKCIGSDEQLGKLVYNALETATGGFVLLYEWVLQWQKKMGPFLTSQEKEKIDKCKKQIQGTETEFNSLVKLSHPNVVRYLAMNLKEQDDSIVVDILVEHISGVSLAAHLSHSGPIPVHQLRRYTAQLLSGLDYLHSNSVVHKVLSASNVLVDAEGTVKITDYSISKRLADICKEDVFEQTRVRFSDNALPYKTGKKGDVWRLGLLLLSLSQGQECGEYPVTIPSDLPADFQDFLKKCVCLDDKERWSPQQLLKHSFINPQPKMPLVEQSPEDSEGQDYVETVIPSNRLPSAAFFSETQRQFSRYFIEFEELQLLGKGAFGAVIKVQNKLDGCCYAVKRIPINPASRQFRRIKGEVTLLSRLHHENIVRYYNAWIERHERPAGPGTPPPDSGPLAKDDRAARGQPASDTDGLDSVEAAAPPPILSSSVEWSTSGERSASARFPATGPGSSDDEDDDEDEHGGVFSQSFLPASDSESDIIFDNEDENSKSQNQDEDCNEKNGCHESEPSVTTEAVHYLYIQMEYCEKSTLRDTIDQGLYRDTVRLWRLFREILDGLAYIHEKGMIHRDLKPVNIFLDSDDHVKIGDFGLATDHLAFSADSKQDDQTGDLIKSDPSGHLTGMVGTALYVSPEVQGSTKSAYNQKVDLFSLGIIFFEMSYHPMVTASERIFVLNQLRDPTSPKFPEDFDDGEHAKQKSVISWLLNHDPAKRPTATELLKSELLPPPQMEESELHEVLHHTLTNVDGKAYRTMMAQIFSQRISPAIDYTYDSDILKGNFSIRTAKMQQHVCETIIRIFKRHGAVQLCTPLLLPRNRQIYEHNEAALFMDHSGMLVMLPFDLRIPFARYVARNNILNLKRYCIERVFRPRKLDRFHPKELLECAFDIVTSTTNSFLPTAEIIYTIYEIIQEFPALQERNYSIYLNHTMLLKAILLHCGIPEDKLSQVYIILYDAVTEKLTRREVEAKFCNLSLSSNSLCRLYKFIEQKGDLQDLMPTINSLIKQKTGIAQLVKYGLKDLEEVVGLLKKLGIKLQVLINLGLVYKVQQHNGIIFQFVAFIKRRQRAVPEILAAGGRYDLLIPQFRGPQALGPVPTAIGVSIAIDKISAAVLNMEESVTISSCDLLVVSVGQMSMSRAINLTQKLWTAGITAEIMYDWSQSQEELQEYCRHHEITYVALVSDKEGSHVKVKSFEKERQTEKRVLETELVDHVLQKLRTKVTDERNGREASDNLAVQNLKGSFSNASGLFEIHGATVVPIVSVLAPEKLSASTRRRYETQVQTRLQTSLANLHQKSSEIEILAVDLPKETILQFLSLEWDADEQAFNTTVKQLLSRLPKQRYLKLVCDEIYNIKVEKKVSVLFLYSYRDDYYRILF
How it was run: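 Human GCN2 (4 nM) preincubated 10 min with compound (0–8 μM) and 200 μM (RS)7 peptide in Tris-HCl pH 7.5, NaCl, MgCl2, DTT. Reaction started with 280 μM ATP, run 1 h at 25 °C. ADP detected by Transcreener fluorescence polarization. IC50 and Ki(app) fitted by tight-binding algorithm.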

Chain of intracellular GCN2 (phosphorylation of the GCN2 substrate eIF2α) (Q9P2K8 whole entry): as above

Row | Structure (SMILES) | IC50 [1] | Ki (GCN2 kinase)
1 | OCC1CN(c2cc(-c3cnc4ccc(C(F)(F)F)nn34)ncn2)CCO1 (stereo not drawn) [II-518, (4-(6-(6-(Trifluoromethyl)imidazo[1,2-b]pyridazin-3-yl)pyrimidin-4-yl)morpholin-2-yl)methanol] | > 5000 nM | 10 to 1000 nM
2 | OC[C@@H]1CCCN(c2cc(-c3cnc4ccc(C(F)F)nn34)ncn2)C1 [II-520, (R)-(1-(6-(6-(Difluoromethyl)imidazo[1,2-b]pyridazin-3-yl)pyrimidin-4-yl)piperidin-3-yl)methanol] | 500 to 5000 nM | 10 to 1000 nM
3 | CS(=N)(=O)C1CCCN(c2cc(-c3cnc4ccc(C(F)F)nn34)ncn2)C1 (stereo not drawn) [II-522, (1-(6-(6-(Difluoromethyl)imidazo[1,2-b]pyridazin-3-yl)pyrimidin-4-yl)piperidin-3-yl)(imino)(methyl)-λ^6-sulfanone] | 500 to 5000 nM | 10 to 1000 nM
4 | [2H]C([2H])([2H])N1CCN(c2cc(-c3cnc4ccc(C(F)F)nn34)ncn2)C(C)C1CNS(C)(=O)=O (stereo not drawn) [II-523, N-((4-(6-(6-(Difluoromethyl)imidazo[1,2-b]pyridazin-3-yl)pyrimidin-4-yl)-3-methyl-1-(methyl-d3)piperazin-2-yl)methyl)methanesulfonamide] | < 500 nM | < 10 nM
5 | CC1CN(c2cc(-c3cnc4ccc(C(F)F)nn34)ncn2)CC(CNS(C)(=O)=O)C1=O (stereo not drawn) [II-525, N-((1-(6-(6-(Difluoromethyl)imidazo[1,2-b]pyridazin-3-yl)pyrimidin-4-yl)-5-methyl-4-oxopiperidin-3-yl)methyl)methanesulfonamide] | < 500 nM | < 10 nM
6 | CS(=O)(=O)NCC1CN(c2cc(-c3cnc4ccc(C(F)F)nn34)ncn2)CC2(CC2)C1(F)F (stereo not drawn) [II-528, N-((5-(6-(6-(Difluoromethyl)imidazo[1,2-b]pyridazin-3-yl)pyrimidin-4-yl)-8,8-difluoro-5-azaspiro[2.5]octan-7-yl)methyl)methanesulfonamide] | < 500 nM | < 10 nM
7 | CC1CN(c2cc(-c3cnc4ccc(C(F)F)nn34)ncn2)CC(CNS(C)(=O)=O)=C1F (stereo not drawn) [II-537, N-((1-(6-(6-(Difluoromethyl)imidazo[1,2-b]pyridazin-3-yl)pyrimidin-4-yl)-4-fluoro-5-methyl-1,2,5,6-tetrahydropyridin-3-yl)methyl)methanesulfonamide] | < 500 nM | < 10 nM
8 | CC1CC(CNS(C)(=O)=O)CN(c2cc(-c3cnc4ccc(C(F)F)nn34)ncn2)C1C (stereo not drawn) [II-544, N-((1-(6-(6-(Difluoromethyl)imidazo[1,2-b]pyridazin-3-yl)pyrimidin-4-yl)-5,6-dimethylpiperidin-3-yl)methyl)methanesulfonamide] | < 500 nM | < 10 nM
9 | C[C@@H]1C[C@H](CS(C)(=N)=O)[C@H](C)N(c2cc(-c3cnc4ccc(C(F)F)nn34)ncn2)C1 (stereo partly drawn) [II-607, (((2S,3S,5R)-1-(6-(6-(Difluoromethyl)imidazo[1,2-b]pyridazin-3-yl)pyrimidin-4-yl)-2,5-dimethylpiperidin-3-yl)methyl)(imino)(methyl)-λ^6-sulfanone] | < 500 nM | < 10 nM
10 | N=S1(=O)CCN(c2cc(-c3cnc4ccc(C(F)F)nn34)ncn2)CC1 [II-676, 4-[6-[6-(Difluoromethyl)imidazo[1,2-b]pyridazin-3-yl]pyrimidin-4-yl]-1-imino-1,4-thiazinane 1-oxide] | > 5000 nM | 10 to 1000 nM
11 | CC1CN(c2cc(-c3cnc4ccc(C#N)nn34)ncn2)C(C)C(c2cn[nH]c2)N1 (stereo not drawn) [II-693] | 500 to 5000 nM | 10 to 1000 nM
12 | CS(C)(=O)=NC1CCCN(c2cc(-c3cnc4ccc(C(F)F)nn34)ncn2)C1C(F)F (stereo not drawn) [II-701, [2-(Difluoromethyl)-1-[6-[6-(difluoromethyl)imidazo[1,2-b]pyridazin-3-yl]pyrimidin-4-yl]-3-piperidyl]imino-dimethyl-λ^6-sulfanone] | > 5000 nM | 10 to 1000 nM

More lines, now with the values ahead:

Row | IC50 [1] | Ki (GCN2 kinase) | Structure (SMILES)
13 | < 500 nM | < 10 nM | CC1CC(CNS(C)(=O)=O)C(C)N(c2cc(-c3cnc4ccc(C(F)F)nn34)ncn2)C1 (stereo not drawn) [II-511, N-((1-(6-(6-(Difluoromethyl)imidazo[1,2-b]pyridazin-3-yl)pyrimidin-4-yl)-2,5-dimethylpiperidin-3-yl)methyl)methanesulfonamide]
14 | 500 to 5000 nM | 10 to 1000 nM | OC[C@H]1CCCN(c2cc(-c3cnc4ccc(C(F)(F)F)nn34)ncn2)C1 [II-516, (S)-(1-(6-(6-(Trifluoromethyl)imidazo[1,2-b]pyridazin-3-yl)pyrimidin-4-yl)piperidin-3-yl)methanol]
15 | 500 to 5000 nM | 10 to 1000 nM | OC[C@H]1CCCN(c2cc(-c3cnc4ccc(C(F)F)nn34)ncn2)C1 [II-519, (S)-(1-(6-(6-(Difluoromethyl)imidazo[1,2-b]pyridazin-3-yl)pyrimidin-4-yl)piperidin-3-yl)methanol]
16 | 500 to 5000 nM | 10 to 1000 nM | OCC1CN(c2cc(-c3cnc4ccc(C(F)F)nn34)ncn2)CCO1 (stereo not drawn) [II-521, (4-(6-(6-(Difluoromethyl)imidazo[1,2-b]pyridazin-3-yl)pyrimidin-4-yl)morpholin-2-yl)methanol]
17 | < 500 nM | < 10 nM | CC1CN(c2cc(-c3cnc4ccc(C(F)F)nn34)ncn2)CC(CNS(C)(=O)=O)C1=O (stereo not drawn) [II-526, N-((1-(6-(6-(Difluoromethyl)imidazo[1,2-b]pyridazin-3-yl)pyrimidin-4-yl)-5-methyl-4-oxopiperidin-3-yl)methyl)methanesulfonamide]
18 | < 500 nM | < 10 nM | CC1CN(c2cc(-c3cnc4ccc(C(F)F)nn34)ncn2)CC(CNS(C)(=O)=O)C12OCCO2 (stereo not drawn) [II-527, N-((8-(6-(6-(Difluoromethyl)imidazo[1,2-b]pyridazin-3-yl)pyrimidin-4-yl)-10-methyl-1,4-dioxa-8-azaspiro[4.5]decan-6-yl)methyl)methanesulfonamide]
19 | 500 to 5000 nM | 10 to 1000 nM | CN1CCN(c2cc(-c3cnc4ccc(C(F)F)nn34)ncn2)CC12CN(S(N)(=O)=O)C2 [II-535, 8-(6-(6-(Difluoromethyl)imidazo[1,2-b]pyridazin-3-yl)pyrimidin-4-yl)-5-methyl-2,5,8-triazaspiro[3.5]nonane-2-sulfonamide]
20 | < 500 nM | < 10 nM | CC1=C(F)C(CNS(C)(=O)=O)CN(c2cc(-c3cnc4ccc(C(F)F)nn34)ncn2)C1 (stereo not drawn) [II-538, N-((1-(6-(6-(Difluoromethyl)imidazo[1,2-b]pyridazin-3-yl)pyrimidin-4-yl)-4-fluoro-5-methyl-1,2,3,6-tetrahydropyridin-3-yl)methyl)methanesulfonamide]
21 | 500 to 5000 nM | 10 to 1000 nM | CC1C2COC(=O)N2CCN1c1cc(-c2cnc3ccc(C(F)F)nn23)ncn1 (stereo not drawn) [II-547, 7-(6-(6-(Difluoromethyl)imidazo[1,2-b]pyridazin-3-yl)pyrimidin-4-yl)-8-methylhexahydro-3H-oxazolo[3,4-a]pyrazin-3-one]
22 | > 5000 nM | > 1000 nM | CC1NCCN(c2cc(-c3cnc4ccc(C(F)F)nn34)ncn2)C1C (stereo not drawn) [II-548, 6-(Difluoromethyl)-3-(6-(2,3-dimethylpiperazin-1-yl)pyrimidin-4-yl)imidazo[1,2-b]pyridazine]
23 | < 500 nM | < 10 nM | CC1C(NS(C)(=O)=O)CCCN1c1cc(-c2cnc3ccc(C(F)F)nn23)ncn1 (stereo not drawn) [II-602, N-(1-(6-(6-(Difluoromethyl)imidazo[1,2-b]pyridazin-3-yl)pyrimidin-4-yl)-2-methylpiperidin-3-yl)methanesulfonamide]
24 | < 500 nM | < 10 nM | CC1C(CNS(C)(=O)=O)C(C)(O)C(C)CN1c1cc(-c2cnc3ccc(C(F)F)nn23)ncn1 (stereo not drawn) [II-618, N-((1-(6-(6-(Difluoromethyl)imidazo[1,2-b]pyridazin-3-yl)pyrimidin-4-yl)-4-hydroxy-2,4,5-trimethylpiperidin-3-yl)methyl)methanesulfonamide]
25 | 500 to 5000 nM | 10 to 1000 nM | CS(=O)(=O)NCC1CCCN(c2cc(-c3cnc4ccc(C#N)nn34)ncn2)C1 (stereo not drawn) [II-692, N-[[1-[6-(6-Cyanoimidazo[1,2-b]pyridazin-3-yl)pyrimidin-4-yl]-3-piperidyl]methyl]methanesulfonamide]
26 | 500 to 5000 nM | < 10 nM | CS(C)(=O)=NC1CC(C(F)(F)F)CN(c2cc(-c3cnc4ccc(C(F)F)nn34)ncn2)C1 (stereo not drawn) [II-695, ((1-(6-(6-(Difluoromethyl)imidazo[1,2-b]pyridazin-3-yl)pyrimidin-4-yl)-5-(trifluoromethyl)piperidin-3-yl)imino)dimethyl-λ^6-sulfanone]
27 | > 5000 nM | 10 to 1000 nM | CC1CCC(N=S(C)(C)=O)CN1c1cc(-c2cnc3ccc(C(F)F)nn23)ncn1 (stereo not drawn) [II-696, [1-[6-[6-(Difluoromethyl)imidazo[1,2-b]pyridazin-3-yl]pyrimidin-4-yl]-6-methyl-3-piperidyl]imino-dimethyl-λ^6-sulfanone]
28 | 500 to 5000 nM | < 10 nM | CC1CN(c2cc(-c3cnc4ccc(C(F)(F)F)nn34)ncn2)C(C)C(c2cn[nH]c2)N1 (stereo not drawn) [II-698]
29 | > 5000 nM | 10 to 1000 nM | N#Cc1ccc2ncc(-c3cc(N4CCN5C(=O)CCCC5C4)ncn3)n2n1 (stereo not drawn) [II-699, 3-(6-(6-Oxooctahydro-2H-pyrido[1,2-a]pyrazin-2-yl)pyrimidin-4-yl)imidazo[1,2-b]pyridazine-6-carbonitrile]
30 | < 500 nM | < 10 nM | CS(C)(=O)=NC1CCCN(c2cc(-c3cnc4ccc(C(F)F)nn34)ncn2)C1C(F)F (stereo not drawn) [II-700, [2-(Difluoromethyl)-1-[6-[6-(difluoromethyl)imidazo[1,2-b]pyridazin-3-yl]pyrimidin-4-yl]-3-piperidyl]imino-dimethyl-λ^6-sulfanone]
